melting point [°C]	SMILES
72	COc1c(F)cc(N)cc1Br
265 to 270	Cc1cc(-c2ccc(NC=O)c(C)c2)ccc1NC=O
95 to 97	Cn1cc(Br)c(-c2cccc(N)c2)n1
160	CCOc1ccc(NC(=O)CC(C)O)cc1 (stereo not given)
66	Oc1ccc(Br)c(Cl)c1
146	CC1CCC(C)(COC(=O)C2C(=O)C3(C)CCC2C3(C)C)C1(C)C (stereo not given)
184	O=C(O)c1ccc(Br)nc1
253	N#C/C(=C/c1cccnc1)c1nc(-c2ccc(Cl)cc2)cs1
145 to 148	CC(=O)O[C@H]1[C@H](OC(C)=O)[C@@H](S(=O)(=O)c2ccccc2)OC[C@H]1OC(C)=O
272	NS(=O)(=O)c1cc2c(cc1C(F)(F)F)NCNS2(=O)=O
150 to 154	CSCCC(NC(=O)c1ccccc1)C(=O)O (racemic)
213	Nc1ccccc1/C=C/c1nc2ccccc2[nH]1
67.5	CCC1=CN(S(=O)(=O)c2ccc(C)cc2)C[C@@H]1CCc1cccc(C(=O)OC)c1
236	NC(=O)/C(=N\Nc1cc(Cl)c(Cl)cc1Cl)c1nc2ccccc2s1
271	C/C(=N\Nc1ccc([N+](=O)[O-])cc1)c1nc2c(ccc3ccccc32)nc1C
218 to 221	CN(CC(=O)O)CC(=O)O
150	COC(=O)c1c2c(c(C)c3c1C(C)C3=O)C(=O)C2 (stereo not given)
121	O=C(CCC(=O)Oc1ccccc1)Oc1ccccc1
199 to 203	C(=CC=Cc1ccccc1)C=Cc1ccccc1
93.5	c1cc2c(cc1OC1OCC3C(c4ccc5c(c4)OCO5)OCC13)OCO2 (stereo not given)
146	NCC(O)COc1ccccc1 (stereo not given)
147	COc1ccc(C(=O)C2=NOC3C(=O)N(c4cc(Cl)ccc4Cl)C(=O)C23)cc1 (stereo not given)
90 to 91	CSC(Cl)=NS(=O)(=O)c1ccc(C)cc1
71	COC(=O)C(=O)C1CCc2cc(OC)ccc2C1=O (stereo not given)
37	Cc1cccc(O)c1[N+](=O)[O-]
119	O=C1OC(C(Cl)(Cl)Cl)Cc2ccccc21 (stereo not given)
85	Clc1cn2ccsc2n1

melting point [°C]	SMILES
26 to 28	CC1=CC(=O)CC(C)(C)C1=O
108 to 111	COc1ccc(C(O)C(=O)O)cc1 (stereo not given)
172	CCCCOc1ccc(NC(=O)C(C(F)(F)F)C(F)(F)F)cc1
109	Cn1ccc2c1CC(C)(C)CC2=O
184	O=C(O)/C(=C/c1ccccc1[N+](=O)[O-])c1ccc([N+](=O)[O-])cc1
104	O=S(=O)(Cl)c1ccc(S(=O)(=O)c2ccccc2)s1
147 to 150	CC(=CNNc1nc(C)cc(C)n1)c1cccnc1
206	O=C1c2ccccc2C(=O)N1Br
27	Nc1cc(C(F)(F)F)c(F)cc1Br
135	Cc1ccc(-c2cc(NN=c3c(C(F)(F)F)nc4ccccc4[nH]c3=O)[nH]n2)cc1
61 to 67	Cn1cc(I)cn1
50	N#Cc1c(F)cccc1I
151 to 153	NNC(=O)C12CC3CC(CC(C3)C1)C2
158	Cn1c(=O)c2c(ncn2CCO)n(C)c1=O
183	CC(=O)N1CCN(c2ccc(O)cc2)CC1
55 to 64	C[C@]12CCC(=O)C=C1CCC2=O
108	CC(=O)c1ccc(-c2c(Cl)cc(Cl)cc2Cl)o1
166 to 167	Cc1cc(C)nc(NN)n1
-30.4	CCOC(=O)C(C)(C)C(=O)OCC
128	CCOC(=O)/C(C(N)=S)=C1/NN=C(c2ccccc2O)O1
93	CCOC(=O)C1C(c2ccc(C)cc2)C(C(=O)OCC)C(O)(C(F)(F)F)NC1(O)C(F)(F)F (stereo not given)
164	CSc1ncnc2c1ncn2C1OC(CO)C(O)C1O (stereo not given)
246	Cc1cc(C(F)(F)F)n2nc(N)c(/N=N/c3ccc4ccccc4c3)c2n1
202	N#CC1=C(N)Oc2c(c(C(F)(F)F)nn2-c2ccccc2)C1c1ccc(F)cc1 (stereo not given)
187	Cc1ccc(-c2csc(/C(C#N)=N\Nc3cc(Cl)ccc3Cl)n2)cc1
124 to 125	Cc1csc(C(=O)O)c1
117	COc1cc(CO)cc(Cl)c1O

melting point [°C]	SMILES
65	Cc1ccc2ccc3ccccc3c2c1
153	OC(c1ccc(F)cc1)C(O)c1ccc(F)cc1 (stereo not given)
161	O=C1/C(=N/Nc2cccnc2)C(C(F)(F)F)=NN1c1ccccc1
108	O=C(OCC(=O)N1CCCCCC1)c1ccccc1
56	CCOC(=O)C(C)(C)N1CCN(c2ccc(Cl)cc2)CC1
157 to 161	CN(C)c1cccc2c(S(=O)(=O)NC3CC(C)(C)N(O)C3(C)C)cccc12 (stereo not given)
129 to 136	CC(C(=O)O)C(=O)O
185 to 188	O=C(O)c1ccc2c(c1)CCO2
8	O=C(OCCCl)OCCCl
88 to 91	Clc1ccc(-n2cccc2)cc1
134	CCCCCCCCCCCCCCCCCC(=O)Nc1ccc(O)cc1
67	O=[N+]([O-])c1ccccc1S(=O)(=O)Cl
205	CC12CCC(OC=O)CC1CCC1C2CCC2(C)C1CCC2(O)C#Cc1ccccc1 (stereo not given)
140 to 142	FC(F)(F)c1cccc(CSc2nnc(S)s2)c1
156 to 157	Cc1cc(C)c(CC(=O)c2oc3ccccc3c2NC(=O)Cc2ccccc2)c(C)c1
78	Cc1nn(Cc2ccccc2)c(N)c1C#N
32	Fc1ccc(I)cn1
93	Brc1cnc2ccccn12
51	Cc1ccc(Oc2ccc(C)cc2)cc1
122	O=C(OCC(=O)N1CCC(O)CC1)c1ccccc1
198 to 200	COc1cc(CC#N)c(OC)cc1CC#N
90	O=C(O)C(Cc1ccccc1)Cc1ccccc1
29 to 33	CCCCCCCCCCCCCCCCCCN=C=S
87 to 88	CCOC(=O)c1ccc(NC)c(N)c1
144 to 146	NS(=O)(=O)c1ccc(F)c2nonc12

SMILES	melting point [°C]
CC(=O)OC1CCC2(C)C(=CC(=O)C3C2CCC2(C)C(OCc4ccccc4)CCC32)C1 (stereo not given)	203
CC(=O)OC(C)=O	-73
CC(C)Oc1cc(-n2nc(C(C)(C)C)oc2=O)c(Cl)cc1Cl	90
CCCCOC(=O)CCC(=O)OCCCC	-29.2
Cc1cc(O)ccc1[N+](=O)[O-]	128
CC12CCC(O)C=C1CCC1C2CCC2(C)C(c3ccc(=O)oc3)CCC12O (stereo not given)	235
CN1CCC23c4c5ccc(O)c4OC2C(=O)CCC3(O)C1C5 (stereo not given)	248
c1ccc(CC2CCNCC2)cc1	16.8
CC(C)(C)C(O)C(=Cc1ccc(Cl)cc1Cl)n1cncn1 (stereo not given)	148 to 149
CC(C)(C)C(O)C(Cc1ccc(Cl)cc1Cl)n1cncn1 (stereo not given)	148
CNc1cnn(-c2cccc(C(F)(F)F)c2)c(=O)c1Cl	184
